These results are taken from article PMC8321398, “The discovery of a novel series of compounds with single-dose efficacy against juvenile and adult Schistosoma species” (PLoS Neglected Tropical Diseases, 2021).

In brackets after ≈: the same amount, converted by molar mass. Where two headings read alike, the source gives them in different places.

One data set relates to Juvenile S. mansoni. The data set is described as follows: In vitro juvenile (3 week old) S. mansoni worm assay. The data set is classed as cell-based. Particulars: Schistosoma mansoni; Table 2; in vitro, 120 h incubation. The text has this:
(§1) The Puerto Rican strain of S. mansoni was maintained in Biomphalaria glabrata and CD1 mice. Oncomelania hupensis (hupensis) infected with S. japonicum (Chinese strain) and Bulinus truncatus (truncatus) infected with Egyptian strain S. haematobium were obtained from BEI Resources, NIAID, NIH. Infection of mice for worm recovery was as previously described except that, whereas cercariae of S. mansoni and S. haematobium were obtained by shedding from infected snails under lights, cercariae of S. japonicum were obtained by gently crushing the snails. Furthermore, adult S. haematobium were recovered after 12 weeks following mouse infection.
(§2) In vitro efficacy was carried out as previously described. In brief, worms were recovered from infected mice by portal perfusion 3 weeks (for juveniles) or 6 weeks (for adults) post-infection using warm perfusion medium (Dulbecco’s Modified Eagle’s Medium [DMEM], 2mM L-glutamine, 100 Units/ml penicillin, 100μg/ml streptomycin, 20mM Hepes, 10 Units/ml heparin [Sigma, UK]). Worms were washed free of red blood cells using the perfusion medium, and finally suspended in complete medium (cDMEM: DMEM, 2mM L-glutamine, 100 Units/ml penicillin, 100μg/ml streptomycin, 10% FCS). The juvenile assays were carried out in 96-well plates, each well containing 6–8 worms in 200 μL cDMEM. The adult worm assay was in 24-well plates, each well containing 3 worm pairs in 1mL cDMEM. Both the juvenile and adult worm cultures were kept at 37° C, in an atmosphere of 5% CO2. Drug effects were determined on day 5 following drug treatment by assessing the viability of individual worms as described in [14].

A short description of data set [1]: Plasma protein binding in mouse plasma at 10 uM, equilibrium dialysis. The data set is classed as in vitro ADME. Here is the method: (§3) Each experiment was performed in duplicate for the compound being tested. A working solution of compound was prepared from 10 μL of 10 mM solution in DMSO + 190 μL 40:60 MeCN:Water. A Total solution was prepared from 12 μL of working solution + 588 μL plasma (compound conc: 10 μM, DMSO: 0.1%, ACN:0.76%). In an equilibrium dialysis chamber, Total solution (200 μL) was added to the plasma chamber and PBS pH 7.4 (350 μL) was added to the buffer chamber. The chamber was then incubated at 37°C for 6 h with constant shaking at 400 rpm (Thermomixer comfort, Eppendorf). Aliquots were removed from both plasma and buffer chambers and the following test samples prepared: Blank: blank Plasma (20 μL) + blank buffer (60 μL), Buffer: blank plasma (20 μL) + test buffer (60 μL), Plasma: test plasma (20 μL) + blank buffer (60 μL), Total: total sample (20 μL) + blank buffer (60 μL). Ice-cold acetonitrile (160 μL), containing a suitable standard was added to all samples, they were shaken vigorously and centrifuged at 4,000 rpm for 20 min at 15°C. Supernatant (110 μL) from each sample was diluted with water (110 μL) and the sample analysed by LC-MS/MS.
(§4) % Free = 100 × (AREA in buffer × dilution factor)/(AREA in Plasma × dilution factor)
(§5) % Recovery = 100 ×[(Avg AREA in buffer × dilution factor) + (Avg AREA in Plasma × dilution factor)] / (Avg AREA in Total × dilution factor)

The test system of a further data set is HepG2 cells. The data set can be described thus: Cytotoxicity, HepG2 cells with MTT. The data set is classed as cell-based, human. Particulars: Table 2; hepG2 cell line, 72 h incubation. Here is the method: Activity against mammalian cells was determined using either of two standard assays. The first of these used MRC-5 cells with Alamar blue staining as previously described. The second used HepG2 cells monitored using 3-(4,5-dimethylthiazol-2-yl)-2,5-diphenyltetrazolium bromide (MTT) as previously described.

Data set [2] is described as follows: Plasma protein binding in human plasma at 10 uM, equilibrium dialysis. It is filed as in vitro ADME. As to the method: as §3, §4, §5
Data set [3] is described as follows: Metabolic stability in human hepatocytes. Particulars: hepatocytes (suspension), pH 7.4, 90 min incubation, read-out: Human hepatocyte % remaining at 90 min. It is filed as in vitro ADME. As to the method:
(§6) 100 μM compound stock solution was prepared from 5 μL of 4 mM stock in DMSO + 195 μL MeCN. Working solution (2 μM compound) was prepared using 10 μL of 100 μM stock + 490 μL buffer pH 7.4 (KHB supplemented with CaCl2, NaHCO3, HEPES, fructose, glycine; pH 7.4).
(§7) Working solution (25 μL, 2 μM) was added in duplicate to wells in a 0.5 mL per well, 96 well plate which was preincubated to reach 37°C. Hepatocyte suspension (25 μL) was added to each plate, and the plate incubated (37°C, 95% relative humidity with 5% CO2 supply) under gentle mixing (Thermomixer @300 rpm). After designated time periods, ice-cold MeCN (250 μL) was added with a suitable standard. For T = 0 min, ice-cold MeCN (250 μL) with suitable standard was added to the working solution (2 μM) and hepatocyte suspension (25 μL) added. The plates for each time point were shaken, sonicated for 5 mins and kept at 4°C until the final plate was processed. The plates were centrifuged at 4,000 rpm for 20 min, supernatant (110 μL) was mixed with water (110 μL) and the samples analysed using LC-MS/MS.

The nature of data set [4]: Metabolic stability in mouse hepatocytes. It is filed as in vitro ADME. Particulars: hepatocytes (suspension), pH 7.4, 90 min incubation, read-out: Mouse hepatocyte % remaining at 90 min. As to the method:
as §6, §7

The nature of a further data set: Kinetic solubility. It is filed as physicochemical. The text has this: Table 4 in vitro, physicochemical and in vivo properties of compounds pictured in Fig 10. | column: Measured physicochemical properties / Kinetic solubility, pH 7.4 (uM); Measured physicochemical properties / Kinetic solubility, FaSSIF (uM); Measured physicochemical properties / Kinetic solubility, FeSSIF (uM)

A further data set deals with Adult S. mansoni. The data set can be described thus: In vitro adult S. mansoni worm assay. The data set is classed as cell-based. Particulars: Schistosoma mansoni, 120 h incubation.
From the text: as §1, §2

A further data set is described as follows: Mouse pharmacokinetics.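 For all read-outs here: three mice per experiment, dosed in 10% DMSO with 50 mM Na2HPO4 buffer plus Tween-80, plasma levels quantified by LC-MS against a calibration line prepared in blank matrix.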 It is filed as in vivo. Particulars: for Clobs / AUC(0-inf) / Vd / half-life: 0.5 mg/kg iv, in a mixture of 5 compounds; for AUC(0-inf) / Vd / bioavailability / half-life: male, Swiss albino, plasma; for Vd: read-out: Vss; for bioavailability: 2.5 mg/kg oral, mixture of 5 compounds, calculated values > 100% shown as 100; for half-life: iv, 0.5 mg/kg, sampled over 24 h.

The test system of another data set is S. japonicum adult. The data set is described as follows: In vitro adult S. japonicum worm assay. It is filed as cell-based.
From the text: as §1, §2

Data set [5] can be described thus: In vivo efficacy, mouse model of juvenile (21-day old) S. mansoni infection. Particulars: female, CD1, plasma; mouse, Juvenile infection, oral 50 mg/kg, formulation corn oil; read-out: Plasma conc @24 h (efficacy experiment). Here is the method: (§8) Prior to in vivo efficacy experiments, a single animal was given a dose of drug (using the same formulation) that was twice as large as that planned for use in the efficacy experiments and was observed periodically for adverse clinical signs for 24h by trained veterinarians. Adverse clinical signs checked include postural defect, vocalization, oculo-nasal discharge, hypersalivation, change in activity, abnormal gait, respiration and pulse, piloerection, loss of pupillary reflex, eyelid reflex, chromodacryorrhea, reaction to handling, tremor, convulsions, prostration, diarrhoea, cachexia, emaciation. […] In vivo efficacy was assessed in female CD1 mice using methods based on those previously described. Mice were infected subcutaneously with 150 cercariae. Test compounds were suspended in 7% Tween-80 / 3% Ethanol / double distilled water and drug dispersal was facilitated by vortexing and using a sonicating water bath (Formulation “Aqueous”). Alternatively, drugs were first dissolved in DMSO, then diluted with corn oil to give a 1:19 DMSO:corn oil solution/suspension of test compound (Formulation “Corn oil”). Dosing was by oral gavage. Mice in the negative control groups were given the drug suspension vehicle only. Positive controls for treatment of adult, day 42 old, infections were treated with PZQ and those for juvenile, day 21 old, infections with artemether, which unlike PZQ is effective against the juvenile worm infections in mice. During and following treatment, mice were closely observed for any ill effects by staff experienced in animal handling. This involved individuals who were blinded to the treatment groups. Effects they were trained to look for included hunching, immobility, piloerection, subdued behaviour, diarrhoea and loss of body condition. None were seen. Worms were recovered by portal perfusion with citrate saline 8–14 days post treatment and counted. Differences between groups relative to the non-drug treated controls were assessed for statistical significance by Student’s unpaired t-test using GraphPad Prism Software. P values are presented as follows:- ns–P > 0.05 (not significant), * P ≤ 0.05, ** P ≤ 0.01, *** P ≤ 0.001, **** P ≤ 0.0001.
(§9) For pharmacokinetic analysis during the in vivo efficacy experiments individual animals were only sampled once. Samples were taken from one animal in each experimental group at each of 1, 4, 8 h and samples from two animals in each group were taken at 24 h.

For data set [6], the system named is S. mansoni juvenile worms. Described as above. Particulars: mouse, Juvenile infection, oral 50 mg/kg, formulation corn oil. As to the method:
as §8, §9

The test system of data set [7] is S. mansoni juvenile worms. Particulars: cited from earlier work.
For a further data set, the system named is S. mansoni infections. The arrangement: method as in PMID 29126136. Particulars: cited from earlier work.
The next data set has as its system S. japonicum. The arrangement: method as in PMID 28126024. Particulars: 40 mg/kg; cited from earlier work.
The next data set relates to S. mansoni. The arrangement: method as in PMID 28126024. Particulars: 40 mg/kg; cited from earlier work.
A further data set relates to S. haematobium. The arrangement: method as in PMID 28126024. Particulars: 40 mg/kg; cited from earlier work.
The mark [8] stands for this setting: Table 2, in vitro, read-out: Adult S. mansoni EC50.

Description for Mouse pharmacokinetics: Routine pharmacokinetics was carried out as previously described [24] with the following modifications: Swiss albino male mice of average weight 30 g with three animals per experiment. The final vehicle was 10% DMSO, 90% 50 mM Na2HPO4 with 0.5% Tween-80. Compounds were dosed singly (at a variety of doses as noted in the text) or more commonly in mixtures of 5 at 1 mg/kg per compound iv into the lateral tail vein or 2.5 mg/kg per compound by oral gavage. ~30 μl blood samples were taken by venepuncture, into heparinized capillary tubes and subsequently transferred into 0.5 ml micro-centrifuge tubes. Collection time points were 5 min (iv only), 15 min, 30 min, 1 h, 2 h, 4 h, 8 h & 24 h. All blood samples were processed for plasma by centrifugation at 4,000 rpm for 10 min at 4°C within half an hour of collection. Plasma samples were stored at -20°C until bioanalysis.
Prior to LC-MS analysis, all samples were extracted using protein precipitation using acetonitrile as the extraction solvent. For each batch of samples, a calibration line spanning an appropriate concentration range was created by spiking the compound of interest into blank matrix. The calibration line included 10 evenly spaced points. […] Where necessary, additional dilution QCs were included to validate the dilution process. Within each batch at least 3 study samples were assayed pre and post dilution to assess whether there was any impact from the presence of dosing vehicle in the samples. A linear regression was performed on peak area response ratios (analyte:IS) and the results used to back-calculate analyte concentrations. A batch of samples were considered acceptable if 75% of the calibration samples and 66% of the standard QC samples were within 20% of nominal. The linear range of the assay was defined by the calibration line ±20% i.e. the maximum reportable concentration was 120% of the highest concentration calibration sample that passed acceptance criteria. A metric plot of the IS response was reviewed to ensure the integrity of the study sample data.

`CC(C)Oc1cc(-c2cn3c(-c4ccc5[nH]ncc5c4F)c(C(F)(F)F)nc3cn2)ccc1F` [LSHTM-3690] yielded an EC50 with Juvenile S. mansoni of 11.1 nM. Further, in [1], the “Mouse plasma protein %binding” value was 99.8775%. This compound also came in with a recovery at 6 h, 10 µM in data set [1] (mouse, mouse plasma, pH 7.4) of 93.9%. Also, the “Cytotox TC50” value in the data set on HepG2 cells is 9,250 nM. Moreover, the “Human plasma protein %binding” value in [2] was determined as 99.925%. The recovery at 6 h, 10 µM in [2] (human, human plasma, pH 7.4) turned out to be 89%. Besides, in data set [3], the share remaining at 1.5 h, 1 µM amounted to 79%. In addition, the fraction remaining at 1.5 h, 1 µM in data set [4] was 31%. Further, the kinetic solubility at 24 h in “Kinetic solubility” (FaSSIF, pH 6.5, read-out: Kinetic solubility, FaSSIF) came to 188 µM (≈ 89 µg/mL). In the data set “Kinetic solubility” (FeSSIF, pH 5, read-out: Kinetic solubility, FeSSIF), the kinetic solubility at 24 h was found to be 196 µM (≈ 92.8 µg/mL). Besides, the EC50 with Adult S. mansoni (setting [8]) was determined as 9 nM. For the same compound, in the data set “Mouse pharmacokinetics”, the Clobs was determined as 24.5 mL/min/kg, the AUC(0-inf) was found to be 300 ng·h/mL, the Vd was determined as 5 L/kg and the bioavailability was 100%. In the data set “Mouse pharmacokinetics”, the half-life was 4.6 h.
Turning to `CC(C)c1cc(-c2cn3c(-c4ccc5[nH]ncc5c4F)c(C(F)(F)F)nc3cn2)ccc1F` [LSHTM-3661], in the data set on Juvenile S. mansoni, a half-maximal response (EC50) required 2.7 nM. Further, in the data set with HepG2 cells, the “Cytotox TC50” value is on record as 17,000 nM. In data set [3], the share remaining at 1.5 h, 1 µM turned out to be 45%. The EC50 in the data set on S. japonicum adult (Schistosoma japonicum, S. japonicum, 120 h incubation, read-out: Sj adult EC50) is 24.8 nM. In addition, in the data set on S. japonicum adult (adult EC50 S. japonicum / S. mansoni), the “Potency ratio Sj/Sm” value turned out to be 10.9. For the same compound, in data set [4], the share remaining at 1.5 h, 1 µM came out at 78%. Besides, the concentration at 24 h in data set [5] was 178 ng/mL. In data set [6], the Worms remaining is listed as 0%. Further, in the data set “Kinetic solubility” (pH 7.4, read-out: Kinetic solubility, pH 7.4), the kinetic solubility at 24 h amounted to 0.04 µM (≈ 0.0183 µg/mL). In addition, the EC50 in the data set with Adult S. mansoni (setting [8]) came out at 2.3 nM. For the same compound, in the data set with Adult S. mansoni (Table 3, S. mansoni, read-out: Sm adult EC50), the EC50 came out at 2.3 nM. Also, in “Mouse pharmacokinetics”, the Clobs was determined as 31.3 mL/min/kg, the AUC(0-inf) is 300 ng·h/mL, the Vd amounted to 5.6 L/kg and the bioavailability was 57.1%. Also, in the data set “Mouse pharmacokinetics”, the half-life is 4.5 h.
`CO[C@H]1O[C@@H]2O[C@@]3(C)CC[C@H]4[C@H](C)CC[C@@H]([C@H]1C)[C@@]24OO3` [artemether]: the “efficacy against the juvenile worm infections in mice” value in data set [7] (mice) is recorded as “effective”.
Take `CC(C)NCC1CCc2cc(CO)c([N+](=O)[O-])cc2N1` (stereo not drawn) [oxamniquine]: the “efficacy against S. mansoni infections” value in the data set with S. mansoni infections is recorded as “effective”.
On to `CC(C)c1nn2cnc(-c3ccc(F)c(C(F)(F)F)c3)cc2c1-c1ccc2[nH]ncc2c1F` [LSHTM-3644], for which a half-maximal effect in the data set on Juvenile S. mansoni (EC50) was put at 60 nM. For the same compound, in the data set on Adult S. mansoni (setting [8]), the EC50 was determined as 40 nM. Also, in “Mouse pharmacokinetics”, the Clobs stood at 6.33 mL/min/kg, the AUC(0-inf) is 1330 ng·h/mL, the Vd worked out at 2.4 L/kg and the bioavailability is 76%. In addition, the half-life in the data set “Mouse pharmacokinetics” is 6.3 h.
Turning to `O=C(C1CCCCC1)N1CC(=O)N2CCc3ccccc3C2C1` (stereo not drawn) [PZQ, Praziquantel], the “cure rate in children” value is 95.3% in the data set with S. japonicum, 76.4% in the data set on S. mansoni and 73.6% with S. haematobium. Besides, the “activity against the juvenile stages” value in data set [7] (both in vivo and in vitro) was “relatively ineffective”.

One may read the EC50 as the concentration giving half of the maximal effect. The share remaining is what is left of the initial amount, in per cent. What is called kinetic solubility is solubility judged after dilution from a stock solution rather than from solid. The AUC(0-inf) is the area under the concentration-time curve extrapolated to infinity. Broadly, the bioavailability is dose-corrected exposure relative to a reference, in per cent. Broadly, the half-life is the time in which the quantity being followed falls by half.
